Results: US6943190B2, “Method of using pyruvate and/or its derivatives for the treatment of cytokine-mediated inflammatory conditions” (University of Pittsburgh-of the Commonwealth System of …, priority 2001, dated 2005)

Columns and labels:
HMGB-1 [1] = assay: Serum HMGB-1 in endotoxemic mice (western blot); format: in vivo, Balb/C mice; conditions: for serum HMGB1: pretreatment 40 mg/kg 30 min before LPS, measured 20 hours after onset of endotoxemia
Experimental: Endotoxin shock. Mice were injected with endotoxin (Escherichia coli lipopolysaccharide, LPS 0111:B4; Sigma Chemical Co, St. Louis, Mo.) that was dissolved in sterile pyrogen-free saline at stock concentrations of 10 mg/ml. LPS solutions were sonicated for 20 min immediately prior to use for each experiment. Mice received an LD75 dose of LPS (5 mg/kg, i.p.). Blood was collected at different times after LPS administration, allowed to clot for 2 h at room temperature, then centrifuged for 20 min at 1,500 g. Serum samples were stored at […] prior to analysis. Mortality was recorded for up to 3 weeks after injection to ensure that no additional late deaths occurred.
Cytokine measurements. TNF concentration in mouse serum and in conditioned media from RAW 264.7 cell cultures was measured by ELISA (minimum detectable concentration=10 pg/ml). Recombinant mouse TNF standards were obtained from R&D Systems (Inc., Minneapolis, Minn.) and dissolved in 0.1% bovine serum albumin solution (BSA, low endotoxin grade from Sigma Chemical Co., St. Louis, Mo.). Monoclonal antibody to mouse TNF was purchased from Biosource International, Inc., Camarillo, Calif. Human TNF monoclonal antibody, human TNF antiserum and mouse TNF antiserum were prepared and contributed by Dr. Christine Metz. Mouse serum IL-6 and IL-1β levels were measured using ELISA kits (R&D Systems, Inc., Minneapolis, Minn.). HMGB-1 was analyzed by western blot as previously described by Wang et al, 1999. […] Protein was electroblotting to Immun-blot PVDF membrane (Bio-rad, Hercules Calif.) and HMGB-1 was analyzed using polyclonal 241 antibody and secondary anti-rabbit horseradish peroxidase (Amersham, Pitscataway, N.J.). Standard curves were constructed using r-HMGB-1, and the intensity of the 30 kD band analyzed by densitometry. […]
The therapeutic efficacy of the delayed administration of ethyl pyruvate after the onset of endotoxemia was assessed. […]

TNF = TNF release by LPS-stimulated RAW 264.7 macrophage cultures (ELISA); format: cell-based, murine
Experimental: (§1) Cell Culture. BALB/c murine macrophage-like RAW 264.7 cells obtained from the American Type Culture Collection (ATCC Number TIB-71, ATCC, Rockville, Mass.) (61), were cultured in RPMI 1640 (Life Technologies, Grand Island, N.Y.) supplemented with 10% heat inactivated fetal bovine serum (Gemini, Calabasas, Calif.), 2 mM glutamine (Cat. # 25030-149, Gibco BRL, Rockville, Mass.) and antibiotic-antimycotic mix (Cat. # 15240-062, Gibco BRL, Rockville, Mass.) in a humidified incubator with 5% CO2. Cells were mechanically removed and resuspended in serum-free Opti-MEM I medium (Life Technology, Grand Island, N.Y.) to perform experiments at 75% confluence.
(§2) Cytokine measurements. TNF concentration in mouse serum and in conditioned media from RAW 264.7 cell cultures was measured by ELISA (minimum detectable concentration=10 pg/ml). […] Mouse serum IL-6 and IL-1β levels were measured using ELISA kits (R&D Systems, Inc., Minneapolis, Minn.). HMGB-1 was analyzed by western blot as previously described by Wang et al, 1999. […] Protein was electroblotting to Immun-blot PVDF membrane (Bio-rad, Hercules Calif.) and HMGB-1 was analyzed using polyclonal 241 antibody and secondary anti-rabbit horseradish peroxidase (Amersham, Pitscataway, N.J.). Standard curves were constructed using r-HMGB-1, and the intensity of the 30 kD band analyzed by densitometry. […]

HMGB-1 [2] = assay: HMGB-1 release from LPS-stimulated RAW264.7 macrophage cultures (western blot); format: cell-based, murine
Experimental: as §1, §2

Structure (SMILES): CCOC(=O)C(C)=O [ethyl pyruvate]
- systemic release of HMGB-1 (serum) (HMGB-1 [1]; delayed treatment beginning 4 hours post-LPS, measured at 20 hours): significantly attenuated the systemic release of HMGB-1
- serum HMGB1 (HMGB-1 [1]): significantly attenuated
- serum HMGB1 (HMGB-1 [1]; listed as Ethyl pyruvate): significantly inhibits serum HMGB-1 levels
- synthesis of TNF at the highest doses tested (TNF; LPS-stimulated RAW 264.7 cells, highest doses of ethyl pyruvate): not completely inhibited
- EC50 (TNF; Mus musculus, RAW264.7, RAW 264.7 cells stimulated with 50 or 100 ng/ml LPS, conditioned media, read-out: concentration that suppressed 50% of the TNF response (EC50)): 3.4 mM
- total intracellular (cell associated) HMGB1 protein concentration (HMGB-1 [2]; RAW264.7 cells treated with 1, 5 or 10 mM, 10 or 20 h): did not significantly influence total intracellular HMGB1 protein concentration
- LPS-induced HMGB-1 release (HMGB-1 [2]; conditioned media, overnight (24 hrs) endotoxin exposure): significantly prevented LPS-induced HMGB-1 release in a concentration dependent manner
